What all share (assay): Agar dilution test (Isosensitest medium / Denley multipoint inoculator), MIC
What all share (assay type): cell-based
On the technique in general: In agar dilution the substance is mixed into plates at graded concentrations.

The test system of test [1] is E. coli Neum. To be noted: Escherichia coli, read-out: Minimale Hemmkonzentration. The source says:
(§1) In der nachstehenden Tabelle sind die MHK-Werte einiger der erfindungsgemäßen Verbindungen angegeben.

Test [2] has as its system Klebsiella pneum. 63. To be noted: read-out: Minimale Hemmkonzentration.
Excerpt: as §1

Test [3] concerns Proteus vulg. 1017. Particulars: read-out: Minimale Hemmkonzentration.
Excerpt: as §1

Test [4] has as its system Proteus morg. 932. Particulars: read-out: Minimale Hemmkonzentration.
Excerpt: as §1

The subject of test [5] is E. coli T 7. To be noted: Escherichia coli, T7, read-out: Minimale Hemmkonzentration.
Excerpt: as §1

The subject of test [6] is Staphylococcus aur. 133. Particulars: read-out: Minimale Hemmkonzentration.
Excerpt: as §1

Test [7] concerns Klebsiella pneum. 8085. Particulars: read-out: Minimale Hemmkonzentration.
Excerpt: as §1

Converted amounts (≈) assume the structure as drawn.

As for `O=C(O)c1cn(C2CC2)c2cc([N+](=O)[O-])c(Cl)cc2c1=O` [Beispiel 1, 6-Chlor-1-cyclopropyl-7-nitro-1,4-dihydro-4-oxo-3-chinolincarbonsäure], the MIC was 32 µg/mL (≈ 104 µM) in test [1]; above 128 µg/mL in test [2]; above 128 µg/mL in test [3]; above 128 µg/mL in test [4]; 64 µg/mL (≈ 207 µM) in test [5]; above 128 µg/mL in test [6]. In addition, the MIC in test [7] amounted to 32 µg/mL (≈ 104 µM).
In the case of `CN(C)n1cc(C(=O)O)c(=O)c2ccccc21` [Beispiel 4, 1-Dimethylamino-1,4-dihydro-4-oxo-3-chinolincarbonsäure], the MIC in test [1] was 32 µg/mL (≈ 138 µM); in test [2], above 128 µg/mL; in test [3], 128 µg/mL (≈ 551 µM); in test [4] it was 128 µg/mL (≈ 551 µM); in test [5], 64 µg/mL (≈ 276 µM); in test [6], above 128 µg/mL. Further, the MIC in test [7] was found to be 64 µg/mL (≈ 276 µM).
Take `O=C(O)c1cn(C2CC2)c2cccc([N+](=O)[O-])c2c1=O` [Beispiel 6, 1-Cyclopropyl-5-nitro-1,4-dihydro-4-oxo-3-chinolincarbonsäure]: the MIC in test [1] is 32 µg/mL (≈ 117 µM); in test [2] it was 128 µg/mL (≈ 467 µM); in test [3] it was 64 µg/mL (≈ 233 µM); in test [4] it was 64 µg/mL (≈ 233 µM); in test [5], 32 µg/mL (≈ 117 µM); in test [6], above 128 µg/mL. Besides, the MIC in test [7] was found to be 128 µg/mL (≈ 467 µM).
Regarding `O=C(O)c1cn(C2CC2)c2cc([N+](=O)[O-])ccc2c1=O` [Beispiel 7, 1-Cyclopropyl-7-nitro-1,4-dihydro-4-oxo-3-chinolincarbonsäure], the MIC in test [2] was 0.5 µg/mL (≈ 1.82 µM); in test [3], 0.25 µg/mL (≈ 0.912 µM); in test [4], 0.25 µg/mL (≈ 0.912 µM); in test [6], 32 µg/mL (≈ 117 µM); in test [7], 0.06 µg/mL (≈ 0.219 µM).

Source of the values: patent publication EP0168733A2, “Process for the preparation of quinolinone and naphthyridoncarboxylic acids” (BAYER AG, priority 1984, dated 1986).
